Test results as given in patent US10175256B2, “Compositions and methods utilizing lysophosphatidylcholine scaffolds” (National University Of Singapore, priority 2013, dated 2019).
Several values for one entry are separate records, joined by “and”; a condition that tells them apart may be missing. Equal entries are not always repeated.

Target: T1, mouse Mfsd2a (Mus musculus, UniProt Q9DA75)
T1 construct: expressed in transfected cells; host or cells: HEK293
T1 sequence (Q9DA75 1-534): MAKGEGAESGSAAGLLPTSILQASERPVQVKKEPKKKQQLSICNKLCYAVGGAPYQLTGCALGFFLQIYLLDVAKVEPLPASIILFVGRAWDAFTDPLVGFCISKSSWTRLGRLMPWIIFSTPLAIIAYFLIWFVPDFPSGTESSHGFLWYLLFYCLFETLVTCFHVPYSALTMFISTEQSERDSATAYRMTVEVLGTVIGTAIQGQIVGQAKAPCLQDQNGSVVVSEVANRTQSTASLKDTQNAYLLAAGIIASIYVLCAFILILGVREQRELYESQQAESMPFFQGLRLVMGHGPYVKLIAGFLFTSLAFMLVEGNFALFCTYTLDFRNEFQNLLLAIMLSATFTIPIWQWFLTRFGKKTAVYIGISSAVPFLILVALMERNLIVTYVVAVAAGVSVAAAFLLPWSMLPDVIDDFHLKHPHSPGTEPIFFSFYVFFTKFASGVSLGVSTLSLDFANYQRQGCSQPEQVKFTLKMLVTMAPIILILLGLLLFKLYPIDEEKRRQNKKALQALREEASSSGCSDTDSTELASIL
Test: Cell-based free fatty acid transport/uptake in Mfsd2a expressing HEK293 cells (mass spectrometry, TLC; Table 1)
Settings: Mfsd2a HEK293 cells, 100 uM fatty acid/BSA overnight
Outline: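 HEK293 cells expressing mouse Mfsd2a, or mock controls, were incubated overnight with 100 μM BSA-complexed fatty acids. Lipids were extracted in hexane:isopropanol (3:2) and phospholipid species quantified by HPLC-MS/MS against spiked internal standards. For TLC, cells received 100 μM [^14C]-oleate overnight, and phospholipids and neutral lipids were resolved.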

## CCCCCCCCCCCCCCCC(=O)O [Palmitic acid]
  PE34p:2 in total phospholipid: 0.2893 mol percent and 0.2458 mol percent and 0.4295 mol percent
  PE36:1 in total phospholipid: 1.713 mol percent and 1.465 mol percent and 1.861 mol percent
  PE36:2 in total phospholipid: 2.152 mol percent and 2.192 mol percent and 2.267 mol percent
  PE36:3 in total phospholipid: 0.4629 mol percent and 0.5112 mol percent and 0.4773 mol percent
  PE36:4 in total phospholipid: 0.3125 mol percent and 0.2556 mol percent and 0.346 mol percent
  PE36p:1 in total phospholipid: 0.5555 mol percent and 0.4227 mol percent and 0.5608 mol percent
  PE36p:2 in total phospholipid: 0.7869 mol percent and 0.5996 mol percent and 0.6801 mol percent
  PE36p:3 in total phospholipid: 0.8448 mol percent and 0.8061 mol percent and 1.169 mol percent
  PE36p:4 in total phospholipid: 1.273 mol percent and 1.14 mol percent and 1.432 mol percent
  PE38:1 in total phospholipid: 0.4976 mol percent and 0.3342 mol percent and 0.5727 mol percent
  PE38:2 in total phospholipid: 0.3125 mol percent and 0.3342 mol percent and 0.3579 mol percent
  PE38:3 in total phospholipid: 0.6133 mol percent and 0.6685 mol percent and 0.6204 mol percent
  PE38:4 in total phospholipid: 0.9026 mol percent and 0.9732 mol percent and 1.301 mol percent
  PE38:5 in total phospholipid: 0.486 mol percent and 0.4227 mol percent and 0.5488 mol percent
  PE38:6 in total phospholipid: 0.2083 mol percent and 0.1081 mol percent and 0.1432 mol percent
  PE38:7 in total phospholipid: 0.08101 mol percent and 0.07864 mol percent and 0.04773 mol percent
  PE38p:0 in total phospholipid: 0.1273 mol percent and 0.118 mol percent and 0.1074 mol percent
  PE38p:1 in total phospholipid: 0.1504 mol percent and 0.1769 mol percent and 0.2744 mol percent
  PE38p:2 in total phospholipid: 0.3935 mol percent and 0.2359 mol percent and 0.3937 mol percent
  PE38p:3 in total phospholipid: 0.9721 mol percent and 0.8651 mol percent and 0.9426 mol percent
  PE38p:4 in total phospholipid: 0.9142 mol percent and 0.9437 mol percent and 1.086 mol percent
  PE38p:5 in total phospholipid: 0.9489 mol percent and 0.7569 mol percent and 0.8591 mol percent
  PE38p:6 in total phospholipid: 1.215 mol percent and 1.298 mol percent and 1.348 mol percent
  PE40:3 in total phospholipid: 0.08101 mol percent and 0.0983 mol percent and 0.1074 mol percent
  PE40:4 in total phospholipid: 0.1157 mol percent and 0.118 mol percent and 0.1909 mol percent
  PE40:5 in total phospholipid: 0.1504 mol percent and 0.1868 mol percent and 0.1909 mol percent
  PE40:6 in total phospholipid: 0.4282 mol percent and 0.3539 mol percent and 0.3699 mol percent
  PE40p:4 in total phospholipid: 0.1736 mol percent and 0.1769 mol percent and 0.3102 mol percent
  PE40p:5 in total phospholipid: 0.2893 mol percent and 0.2064 mol percent and 0.3341 mol percent
  PE40p:6 in total phospholipid: 0.6018 mol percent and 0.6095 mol percent and 0.4892 mol percent
  PE42:7 in total phospholipid: 0.06943 mol percent and 0.05898 mol percent and 0.09545 mol percent
  PE42p:4 in total phospholipid: 0.09258 mol percent and 0.1081 mol percent and 0.1074 mol percent
  PI 32:1 in total phospholipid: 0.01515 mol percent and 0.01528 mol percent and 0.0154 mol percent
  PI 32:2 in total phospholipid: 0.002439 mol percent and 0.002103 mol percent and 0.001294 mol percent
  PI 34:1 in total phospholipid: 0.1103 mol percent and 0.114 mol percent and 0.1029 mol percent
  PI 34:2 in total phospholipid: 0.0629 mol percent and 0.06982 mol percent and 0.06458 mol percent
  PI 36:1 in total phospholipid: 0.1503 mol percent and 0.1538 mol percent and 0.1543 mol percent
  PI 36:2 in total phospholipid: 0.3719 mol percent and 0.3721 mol percent and 0.3402 mol percent
  PI 36:3 in total phospholipid: 0.1684 mol percent and 0.1865 mol percent and 0.158 mol percent
  PI 36:4 in total phospholipid: 0.03864 mol percent and 0.0429 mol percent and 0.03921 mol percent
  PI 38:2 in total phospholipid: 0.3564 mol percent and 0.36 mol percent and 0.319 mol percent
  PI 38:3 in total phospholipid: 1.005 mol percent and 1.022 mol percent and 0.9636 mol percent
  PI 38:4 in total phospholipid: 0.3607 mol percent and 0.3811 mol percent and 0.3385 mol percent
  PI 38:5 in total phospholipid: 0.05186 mol percent and 0.04823 mol percent and 0.04943 mol percent
  PI 38:6 in total phospholipid: 0.006419 mol percent and 0.006589 mol percent and 0.006082 mol percent
  PI 40:3 in total phospholipid: 0.02721 mol percent and 0.02636 mol percent and 0.02342 mol percent
  PI 40:4 in total phospholipid: 0.01374 mol percent and 0.0136 mol percent and 0.01449 mol percent
  PI 40:5 in total phospholipid: 0.006419 mol percent and 0.00673 mol percent and 0.006341 mol percent
  PI 40:6 in total phospholipid: 0.008088 mol percent and 0.005328 mol percent and 0.005047 mol percent
  PS(sum) in total phospholipid: 2.6184 mol percent and 2.721 mol percent and 2.696 mol percent
  PS:34:1 in total phospholipid: 0.4034 mol percent and 0.439 mol percent and 0.4315 mol percent
  PS:34:2 in total phospholipid: 0.04042 mol percent and 0.03854 mol percent and 0.04968 mol percent
  PS:36:1 in total phospholipid: 1.063 mol percent and 1.166 mol percent and 1.107 mol percent
  PS:36:2 in total phospholipid: 0.3989 mol percent and 0.3832 mol percent and 0.387 mol percent
  PS:36:3 in total phospholipid: 0.02599 mol percent and 0.02171 mol percent and 0.02615 mol percent
  PS:36:4 in total phospholipid: 0.004537 mol percent and 0.005316 mol percent and 0.006102 mol percent
  PS:38:2 in total phospholipid: 0.2194 mol percent and 0.2087 mol percent and 0.231 mol percent
  PS:38:3 in total phospholipid: 0.1497 mol percent and 0.1471 mol percent and 0.1469 mol percent
  PS:38:4 in total phospholipid: 0.05651 mol percent and 0.07531 mol percent and 0.06102 mol percent
  PS:38:5 in total phospholipid: 0.007425 mol percent and 0.01063 mol percent and 0.01438 mol percent
  PS:40:4 in total phospholipid: 0.07342 mol percent and 0.05892 mol percent and 0.05971 mol percent
  PS:40:5 in total phospholipid: 0.04908 mol percent and 0.05626 mol percent and 0.06189 mol percent
  PS:40:6 in total phospholipid: 0.1089 mol percent and 0.09746 mol percent and 0.1011 mol percent
  PS:40:7 in total phospholipid: 0.01732 mol percent and 0.0124 mol percent and 0.01264 mol percent
  Total PC + lysoPC in total phospholipid: 67.6 mol percent and 68.89 mol percent and 64.689 mol percent
  Total PE + lysoPE in total phospholipid: 26.98 mol percent and 25.52 mol percent and 29.98 mol percent
  Total PI + lysoPI in total phospholipid: 2.796 mol percent and 2.866 mol percent and 2.638 mol percent
